From patent US8377899B2, “Composition for treatment of cervix cancer” (priority 2006, dated 2013)

What was measured:
HeLa cells [1] = experiment: Cell morphology after single and combination therapy (phase contrast microscope); type: cell-based; conditions: 7th day of the treatment
From the text: The present inventors cultured the cells in normal media additionally for 7 days to observe morphological changes.

HeLa cells [2] = experiment: Western blotting of p53 in HeLa cells treated with cisplatin; type: cell-based; conditions: 40 μM of cisplatin
Procedure: To investigate the effect of cisplatin on cervix cancer cells, HeLa cells were treated with cisplatin. 24 hours before the treatment, 1×10^6 cells were distributed in 100 mm culture dish and cultured at 37° C. with 5% CO2 and 100% humidity. Then, the cells were treated with 40 μM of cisplatin. 24 hours later, Western blotting was performed to measure the level of p53.

HeLa-Luc cells = experiment: Cervix cancer xenograft model, luciferase bioluminescence tumor size; type: in vivo, balb-C nude mouse; conditions: after 2 weeks; siRNA 2 mg/kg and/or cisplatin 0.5 mg/kg, intraperitoneal, every other day by turns, 7 times
Procedure: To generate the cervix cancer xenograft model, 5×10^6 HeLa-Luc cells were injected subcutaneously into a 5 week old female balb-C nude mouse. 7 days later, tumor generation was confirmed. Then, the mouse was treated with siRNA (2 mg/kg) and cisplatin (0.5 mg/kg) every other day by taking turns, 7 times (intraperitoneal injection).
Isofluran was used as an anesthetic for in vivo imaging. Luciferase activity, which increases with the growth of a tumor, was measured 15 minutes after intraperitoneal injection of luciferin.
Bioluminescence signal released by luciferase was represented as the unit of photons/second/steradian/cm2, and the luciferase signal increases as the tumor grew.

HeLa cells [3] = experiment: Senescence, SA β-Gal activity staining; type: cell-based
Procedure: The present inventors further investigated whether the combination therapy of cisplatin with 18E6 siRNAs induced HeLa cell senescence. The inventors measured SA β-Gal activity on the 7th day of the treatment. The cells were washed with PBS using a senescence detection kit (BIoVision, USA) and treated with SA-β-gal staining solution at 37° C. for 12 hours. The cells stained with blue were observed under microscope (×100-200).
Three photographs of the cells were taken randomly to investigate the stained cells (FIG. 17).

HeLa cells [4] = experiment: Apoptosis, annexin V and propidium iodide flow cytometry; type: cell-based; conditions: 7th day of the treatment, attached cells
From the text: To examine apoptosis in the cells treated with 18E6-1 siRNA or 18E6-2 siRNA, the cells attached on the 7th day of the treatment were collected, stained with annexin V and propidium iodide (PI) and analyzed by flow cytometry. Apoptosis rates between the single therapy group and the combination therapy group were compared.

HeLa cells [5] = experiment: MTT assay, cytotoxic effect of cisplatin; type: cell-based; conditions: cisplatin 0.625-80 μM for 48 hours
Procedure: The present inventors also investigated cytotoxic effect of cisplatin on HeLa cells by MTT assay. HeLa cells were treated with different concentrations of cisplatin (0.625, 1.25, 2.5, 5, 10, 25, 40, and 80 μM) for 48 hours, followed by MTT assay to measure the cell growth inhibitory effect.

HeLa cells [6] = experiment: Long-term combination therapy of E6 siRNA and cisplatin, trypan blue cell count; type: cell-based; conditions: 7th day; siRNA 100 nM transfected twice and/or cisplatin 1.25 μM for 4 days
Procedure: To evaluate cytotoxic effect of the long-term combination therapy of synthetic E6 siRNA and cisplatin chemotherapy on cervix cancer cells, HeLa cells were co-treated for a long period of time.
Then, the single therapy group (treated with 18E6-1 siRNA, 18E6-2 siRNA or cisplatin alone) and the combination therapy group (treated with cisplatin and 18E6-1 siRNA or 18E6-2 siRNA) were compared. To obtain the maximum RNAi efficiency, siRNA transfection was repeated after 24 hours from the first transfection. For the transfection, 13 μl of opti-MEM (Gibco, USA) and 2 μl of oligofectamine were added into a 1.5 ml E-tube. To the other 1.5 ml E-tube were added 100 nM of siRNA and opti-MEM to make total volume […]. 5 minutes later, the content of the E-tube containing oligofectamine was transferred into the other E-tube to make the total volume 200 μl, which stood by for 20 minutes to form a complex. […] On the 7th day of culture, the cells were recovered by treating with trypsin, stained with 0.3% trypan blue solution and counted with hemocytometer.
The cells were cultured in normal growth medium for additional 7 days, and harvested by treating them with trypsin. The cells were stained with 0.3% trypan blue and counted with hemocytometer (FIG. 11). […]

Compound: N.N.[Cl][Pt][Cl] [cisplatin]
- cell growth observed by microscope (HeLa cells [1]): grown regularly
- expression level of p53 (HeLa cells [2]): dramatically increased
- time at which the level of p53 reached the peak (HeLa cells [2]): 24 h
- time for which the high level of p53 was constantly observed (HeLa cells [2]): 48 h
- tumor size (HeLa-Luc cells): not much different
- number of stained cells in three random photographs (HeLa cells [3]; 7th day of the treatment (FIG. 17)): Only a small amount of cells were stained
- SA-β-Gal stained (blue) cells (HeLa cells [3]; 7th day of the treatment, microscope (FIG. 16)): some of the blue cells
- apoptosis (HeLa cells [4]): not increased
- cell survival rate (HeLa cells [5]): reduced cisplatin dose dependently
- cell growth (cell number) (HeLa cells [6]): not significant
